Measured values: the NIST ThermoML archive (doi:10.1016/j.fluid.2010.10.005)
Numbers after ± are expanded uncertainties.

Experiment: xn = mol fraction of the nth substance listed
Settings: 623.15 K, Liquid, Vibrating tube method

Compound: CO [methanol] + O
- mass density (20000 kPa, x1 = 0.04): 554.98 ± 25 kg/m3
- mass density (20000 kPa, x1 = 0.09): 499.06 ± 19 kg/m3
- mass density (20000 kPa, x1 = 0.15): 466.53 ± 22 kg/m3
- mass density (20000 kPa, x1 = 0.18): 408.88 ± 62 kg/m3
- mass density (20000 kPa, x1 = 0.2): 310.04 ± 46 kg/m3
- mass density (20000 kPa, x1 = 0.25): 240.45 ± 19 kg/m3
- mass density (20000 kPa, x1 = 0.38): 198.52 ± 14 kg/m3
- mass density (20000 kPa, x1 = 0.57): 192.93 ± 12 kg/m3
- mass density (20000 kPa, x1 = 0.59): 193.68 ± 12 kg/m3
- mass density (20000 kPa, x1 = 0.73): 195.58 ± 11 kg/m3
- mass density (20000 kPa, x1 = 0.9): 203.5 ± 11 kg/m3
- mass density (20000 kPa, x1 = 0.95): 203.61 ± 11 kg/m3
- mass density (25000 kPa, x1 = 0.06): 592.54 ± 13 kg/m3
- mass density (25000 kPa, x1 = 0.1): 564.26 ± 100 kg/m3
- mass density (25000 kPa, x1 = 0.19): 481.28 ± 22 kg/m3
- mass density (25000 kPa, x1 = 0.29): 388.57 ± 21 kg/m3
- mass density (25000 kPa, x1 = 0.38): 335.66 ± 14 kg/m3
- mass density (25000 kPa, x1 = 0.55): 284.19 ± 13 kg/m3
- mass density (25000 kPa, x1 = 0.8): 268.34 ± 12 kg/m3
- mass density (30000 kPa, x1 = 0.07): 599.12 ± 24 kg/m3
- mass density (30000 kPa, x1 = 0.09): 578.83 ± 15 kg/m3
- mass density (30000 kPa, x1 = 0.12): 569.12 ± 14 kg/m3
- mass density (30000 kPa, x1 = 0.19): 536.54 ± 14 kg/m3
- mass density (30000 kPa, x1 = 0.47): 401.25 ± 14 kg/m3
- mass density (30000 kPa, x1 = 0.54): 383.13 ± 26 kg/m3
- mass density (30000 kPa, x1 = 0.76): 350.39 ± 12 kg/m3
- mass density (35000 kPa, x1 = 0.09): 603.89 ± 15 kg/m3
- mass density (35000 kPa, x1 = 0.18): 552.55 ± 13 kg/m3
- mass density (35000 kPa, x1 = 0.38): 476.16 ± 13 kg/m3
- mass density (35000 kPa, x1 = 0.48): 449.31 ± 12 kg/m3
- mass density (35000 kPa, x1 = 0.55): 432.87 ± 12 kg/m3
- mass density (35000 kPa, x1 = 0.63): 422.11 ± 11 kg/m3
- mass density (35000 kPa, x1 = 0.77): 406.97 ± 11 kg/m3
- mass density (35000 kPa, x1 = 0.87): 397.04 ± 11 kg/m3
